From ChEMBL document CHEMBL1201862, “PubChem BioAssay data set” (2004)
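Grown in 96-well plates, cells were treated for 48 hours with each compound at five concentrations. Insufficient inhibition: endpoint recorded as highest concentration tested. GI50: concentration for 50% inhibition of growth.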 The source made the active and inactive calls. Rule as the data show it: active = GI50 up to about 1.1 µM and inactive = higher.

How the values were obtained:
Assay in all cases: inhibition of tumour cell growth, NCI panel, 48 h
786-0 = test system: 786-0
A498 = test system: A498
A549 = test system: A549
ACHN = test system: ACHN
CAKI-1 = test system: CAKI-1
CCRF-CEM = test system: CCRF-CEM
COLO 205 = test system: COLO 205
DLD-1 = test system: DLD-1
DMS-114 = test system: DMS-114
DMS-273 = test system: DMS-273
EKVX = test system: EKVX
HCC 2998 = test system: HCC 2998
HCT-116 = test system: HCT-116
HCT-15 = test system: HCT-15
HL-60 = test system: HL-60
HOP-18 = test system: HOP-18
HOP-62 = test system: HOP-62
HOP-92 = test system: HOP-92
HT-29 = test system: HT-29
IGROV-1 = test system: IGROV-1
K562 = test system: K562
KM-20L2 = test system: KM-20L2
KM12 = test system: KM12
LOX IMVI = test system: LOX IMVI
LXFL 529 = test system: LXFL 529
M14 = test system: M14
M19-MEL = test system: M19-MEL
MOLT-4 = test system: MOLT-4
Malme-3M = test system: Malme-3M
NCI-H226 = test system: NCI-H226
NCI-H23 = test system: NCI-H23
NCI-H460 = test system: NCI-H460
NCI-H522 = test system: NCI-H522
OVCAR-3 = test system: OVCAR-3
OVCAR-4 = test system: OVCAR-4
OVCAR-5 = test system: OVCAR-5
OVCAR-8 = test system: OVCAR-8
RPMI-8226 = test system: RPMI-8226
RXF 393 = test system: RXF 393
RXF 631 = test system: RXF 631
SF-268 = test system: SF-268
SF-295 = test system: SF-295
SF-539 = test system: SF-539
SK-MEL-28 = test system: SK-MEL-28
SK-MEL-2 = test system: SK-MEL-2
SK-MEL-5 = test system: SK-MEL-5
SK-OV-3 = test system: SK-OV-3
SN12C = test system: SN12C
SNB-19 = test system: SNB-19
SNB-75 = test system: SNB-75
SNB-78 = test system: SNB-78
SR = test system: SR
TK-10 = test system: TK-10
U-251 = test system: U-251
UACC-257 = test system: UACC-257
UACC-62 = test system: UACC-62
UO-31 = test system: UO-31
XF498 = test system: XF498
SW-620 = test system: SW-620

In the case of `CCOc1ccc2nc(NC(=O)C(=O)C(C#N)CC(C)(C)C=O)sc2c1` (stereo not drawn), the GI50 (786-0) is reported as > 100 µM (inactive), the GI50 (A498) is reported as > 100 µM (inactive) and the GI50 (A549) is reported as > 100 µM (inactive). For the same molecule, the GI50 (ACHN) was > 100 µM (inactive), the GI50 (CAKI-1) was > 100 µM (inactive) and the GI50 (CCRF-CEM) was 26.9 µM (inactive). For the same molecule, the GI50 (COLO 205) was > 100 µM (inactive), the GI50 (DLD-1) was > 100 µM (inactive) and the GI50 (DMS-114) was 35.6 µM (inactive). The GI50 (DMS-273) was 18.7 µM (inactive), the GI50 (EKVX) was > 100 µM (inactive) and the GI50 (HCC 2998) was > 100 µM (inactive). For the same molecule, the GI50 (HCT-116) was > 100 µM (inactive), the GI50 (HCT-15) was 43.9 µM and the GI50 (HL-60) was > 100 µM (inactive). For the same molecule, the GI50 (HOP-18) was > 100 µM (inactive), the GI50 (HOP-62) was > 100 µM (inactive) and the GI50 (HOP-92) was > 100 µM (inactive). The GI50 (HT-29) was > 100 µM (inactive), the GI50 (IGROV-1) was > 100 µM (inactive) and the GI50 (K562) was 52.7 µM (inactive). The GI50 (KM-20L2) was > 100 µM (inactive), the GI50 (KM12) was > 100 µM (inactive) and the GI50 (LOX IMVI) was 44.2 µM (inactive). The GI50 (LXFL 529) was > 100 µM (inactive), the GI50 (M14) was > 100 µM (inactive) and the GI50 (M19-MEL) was 61.2 µM (inactive). For the same molecule, the GI50 (MOLT-4) was > 100 µM (inactive), the GI50 (Malme-3M) was > 100 µM (inactive) and the GI50 (NCI-H226) was > 100 µM (inactive). The GI50 (NCI-H23) was > 100 µM (inactive), the GI50 (NCI-H460) was > 100 µM (inactive) and the GI50 (NCI-H522) was 49.9 µM (inactive). For the same molecule, the GI50 (OVCAR-3) was > 100 µM (inactive), the GI50 (OVCAR-4) was > 100 µM (inactive) and the GI50 (OVCAR-5) was > 100 µM (inactive). For the same molecule, the GI50 (OVCAR-8) was > 100 µM (inactive), the GI50 (RPMI-8226) was 75.3 µM (inactive) and the GI50 (RXF 393) was > 100 µM (inactive). For the same molecule, the GI50 (RXF 631) was > 100 µM (inactive), the GI50 (SF-268) was > 100 µM (inactive) and the GI50 (SF-295) was > 100 µM (inactive). The GI50 (SF-539) was 75.7 µM (inactive), the GI50 (SK-MEL-28) was > 100 µM (inactive) and the GI50 (SK-MEL-2) was > 100 µM (inactive). For the same molecule, the GI50 (SK-MEL-5) was > 100 µM (inactive), the GI50 (SK-OV-3) was > 100 µM (inactive) and the GI50 (SN12C) was > 100 µM (inactive). For the same molecule, the GI50 (SNB-19) was > 100 µM (inactive), the GI50 (SNB-75) was > 100 µM (inactive) and the GI50 (SNB-78) was > 100 µM (inactive). The GI50 (SR) was 21 µM (inactive), the GI50 (TK-10) was > 100 µM (inactive) and the GI50 (U-251) was > 100 µM (inactive). For the same molecule, the GI50 (UACC-257) was > 100 µM (inactive), the GI50 (UACC-62) was > 100 µM (inactive) and the GI50 (UO-31) was > 100 µM (inactive). For the same molecule, the GI50 (XF498) was > 100 µM (inactive).

In the case of `COc1nc2nccc-2c2occn12`, the GI50 (786-0) is reported as > 100 µM (inactive), the GI50 (A498) is reported as > 100 µM (inactive) and the GI50 (A549) is reported as > 100 µM (inactive). The GI50 (ACHN) was > 100 µM (inactive), the GI50 (CAKI-1) was > 100 µM (inactive) and the GI50 (COLO 205) was > 100 µM (inactive). The GI50 (DLD-1) was > 100 µM (inactive), the GI50 (DMS-114) was > 100 µM (inactive) and the GI50 (DMS-273) was > 100 µM (inactive). The GI50 (EKVX) was > 100 µM (inactive), the GI50 (HCC 2998) was > 100 µM (inactive) and the GI50 (HCT-116) was > 100 µM (inactive). For the same molecule, the GI50 (HCT-15) was > 100 µM, the GI50 (HOP-18) was > 100 µM (inactive) and the GI50 (HOP-62) was > 100 µM (inactive). For the same molecule, the GI50 (HOP-92) was > 100 µM (inactive), the GI50 (HT-29) was > 100 µM (inactive) and the GI50 (IGROV-1) was > 100 µM (inactive). The GI50 (K562) was > 100 µM (inactive), the GI50 (KM-20L2) was > 100 µM (inactive) and the GI50 (KM12) was > 100 µM (inactive). For the same molecule, the GI50 (LOX IMVI) was > 100 µM (inactive), the GI50 (LXFL 529) was > 100 µM (inactive) and the GI50 (M14) was > 100 µM (inactive). The GI50 (M19-MEL) was > 100 µM (inactive), the GI50 (MOLT-4) was > 100 µM (inactive) and the GI50 (Malme-3M) was > 100 µM (inactive). The GI50 (NCI-H23) was > 100 µM (inactive), the GI50 (NCI-H460) was > 100 µM (inactive) and the GI50 (NCI-H522) was > 100 µM (inactive). For the same molecule, the GI50 (OVCAR-3) was > 100 µM (inactive), the GI50 (OVCAR-4) was > 100 µM (inactive) and the GI50 (OVCAR-5) was > 100 µM (inactive). For the same molecule, the GI50 (OVCAR-8) was > 100 µM (inactive), the GI50 (RPMI-8226) was > 100 µM (inactive) and the GI50 (RXF 393) was > 100 µM (inactive). The GI50 (RXF 631) was > 100 µM (inactive), the GI50 (SF-268) was > 100 µM (inactive) and the GI50 (SF-295) was > 100 µM (inactive). For the same molecule, the GI50 (SF-539) was > 100 µM (inactive), the GI50 (SK-MEL-28) was > 100 µM (inactive) and the GI50 (SK-MEL-2) was > 100 µM (inactive). For the same molecule, the GI50 (SK-MEL-5) was > 100 µM (inactive), the GI50 (SK-OV-3) was > 100 µM (inactive) and the GI50 (SN12C) was > 100 µM (inactive). The GI50 (SNB-19) was > 100 µM (inactive), the GI50 (SNB-75) was > 100 µM (inactive) and the GI50 (SNB-78) was > 100 µM (inactive). The GI50 (SW-620) was > 100 µM (inactive), the GI50 (TK-10) was > 100 µM (inactive) and the GI50 (U-251) was > 100 µM (inactive). The GI50 (UACC-257) was > 100 µM (inactive), the GI50 (UACC-62) was > 100 µM (inactive) and the GI50 (UO-31) was > 100 µM (inactive). For the same molecule, the GI50 (XF498) was > 100 µM (inactive).
